Patent publication US20030055046A1, “Novel pyrido cyclohexenyl phenyl carboxamides tocolytic oxytocin receptor antagonists” (Wyeth, priority 2001, published 2003)
Counter-ions that a name gives are not always drawn.

Biological target: T1, human vasopressin V2 receptor subtype (Homo sapiens, UniProt P30518)
T1 construct: host or cells: CHO cells, stably transfected (pZeoSV vector)
Assay: Vasopressin binding in CHO cell membranes expressing human vasopressin V2 subtype receptors
Settings: 100 nM, [3H]arginine vasopressin
Description: Vasopressin Binding in Chinese Hamster Ovary Cell Membranes Expressing Human Vasopressin V2 Subtype Receptors
Chinese Hamster Ovary (CHO) cells stably transfected with the human V2 subtype receptors were obtained from M. Thibonnier, Case Western Reserve University School of Medicine, Cleveland, Ohio.
A. Passaging and Amplification of Cells:
CHO cells transfected with the human vasopressin V2 subtype receptors obtained from M. Thibonnier (pZeoSV vector) are allowed to grow to confluency (approx. >90%) in T-150 flasks under sterile conditions, in a cell culture medium consisting of F-12 Nutrient Mixture (HAM) with L-glutamine (Gibco Cat.# 11765-054) containing 15 mM HEPES (Gibco Cat.# 15630-080), 1% antibiotic/antimycotic (add 5 mL 100×, Gibco Cat.# 15240-062 per 500 mL F-12), 250 μg/mL Zeocin (add 1.25 mL of 100 mg/mL Invitrogen R-250-01 per 500 mL F-12) and 10% Fetal Bovine Serum (Qualified, heat inactivated, Gibco Cat.# 16140-063). The medium is removed by aspiration and the cells washed with 10 mL of Hank's Balanced Salt solution (Gibco Cat.# 14175-095). The salt solution is removed by aspiration and the cells trypsinized with 5 mL of trypsin-EDTA (0.05% trypsin, 0.53 mM EDTA-4Na, Gibco Cat.# 25300-070) for 1 min. The trypsin is removed by aspiration and the cells dislodged by tapping. Cell Culture medium (e.g. 30 mL for 1:30 split) is immediately added and mixed well to inactivate trypsin. 1 mL of detached cells is added to new culture flasks containing fresh Cell Culture medium (e.g. into 25 mL per T-150 flask), and mixed gently. The cells are incubated at 37° C. in 5% CO2. The medium is changed at 3 to 4 day interval (or as appropriate). The cells grow to confluency (approx. >75%-95%) within 7-8 days. All steps are done under sterile conditions.
The cells are washed twice gently with Hank's Balanced Salt solution (e.g. use 10 mL per T-150 flask). The excess solution is removed and the cells bathed for 15-30 min. in an enzyme-free Cell Dissociation Buffer (e.g. use 8 mL Hank's Based, Gibco Cat.# 13150-016 per T-150 flask) until cells are loosened. The contents are transferred to centrifuge tubes (50 mL) kept in an ice bath. All subsequent steps are done at 4° C. The tubes are centrifuged at 300×g for 15 min (1380 rpm on SORVAL, Model RT6000D, using the rotor for 50 mL tubes). The supernatant is discarded and the cells suspended in homogeneizing buffer(10 mM Tris-HCl containing 0.25 M sucrose and 1 mM EDTA, pH 7.4) ensuring that the volume of the buffer is about ten times the volume of the cell pellet. The cells are pooled into a centrifuge tube (50 mL) and homogenized with Polytron at setting 6 for 10 sec. The homogenate is transferred into a Potter-Elvjehm homogeneizer and homogenized with 3 strokes. The homogenate is centrifuged at 1500×g for 60 min at 4° C. (3100 rpm using SORVAL, model RT6000D, using the rotor for 50 mL tubes). The pellet is discarded. The supernatant is centrifuged at 100,000×g for 60 min. at 4° C. (Beckman L8-80M ultracentrifuge; spin at 37,500 rpm with rotor type 70 Ti for 50 mL tubes; 38,000 rpm with type 80Ti for 15 mL tubes; or 35,800 rpm with rotor type 45Ti). The supernatant is discarded and the pellet suspended in 3 to 4 mL of Tris buffer (50 mM TRIS-HCl, pH 7.4). The protein content is estimated by the Bradford or Lowry method. The volume of the membrane suspension is adjusted with the membrane buffer (50 mM Tris-HCl containing 0.1% BSA and 0.1 mM PMSF) to give 3.0 mg/mL (or as appropriate) of protein. The membranes are aliquoted and stored at −70° C.
C. Radioligand Binding Assay:
In wells of a 96-well format microtiter plate, is added 90, 110 or 130 μL (to make up a final volume of 200 μL) of assay buffer containing 50 mM of Tris-HCl (pH 7.4), […], 1 mg % aprotinin, 1 mg % leupeptin, 2 mg % 1,10-phenanthroline, 10 mg % trypsin inhibitor, and 0.1 mM PMSF. The inhibitors are added on the day of the experiment. […]

T1 sequence (P30518 whole entry): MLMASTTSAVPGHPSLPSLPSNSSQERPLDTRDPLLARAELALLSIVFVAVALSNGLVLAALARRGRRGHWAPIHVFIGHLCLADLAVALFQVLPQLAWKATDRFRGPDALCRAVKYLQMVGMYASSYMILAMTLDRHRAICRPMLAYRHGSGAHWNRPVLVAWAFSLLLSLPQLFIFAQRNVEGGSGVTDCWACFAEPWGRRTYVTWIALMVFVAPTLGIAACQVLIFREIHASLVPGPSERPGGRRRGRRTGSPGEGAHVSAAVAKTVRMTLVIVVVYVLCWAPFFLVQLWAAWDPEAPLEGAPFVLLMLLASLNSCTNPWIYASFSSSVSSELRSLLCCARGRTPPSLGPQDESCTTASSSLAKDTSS

V2 % inhibition @ 100 nM [%] | SMILES
21 | Cc1cc(C(=O)N2Cc3ccc(C(=O)N4CCN(c5ccccn5)CC4)n3Cc3ccccc32)ccc1C1=CCCCC1 [Example 9, {10-[4-(1-Cyclohex-1-en-1-yl)-3-methylbenzoyl]-10,11-dihydro-5H-pyrrolo[2,1-c][1,4]benzodiazepin-3-yl}[4-(2-pyridinyl)-1-piperazinyl]methanone]
17 | Cc1cc(C(=O)N2Cc3ccc(C(=O)N(C)Cc4cccnc4)n3Cc3ccccc32)ccc1C1=CCCCC1 [Example 11, 10-[4-(1-Cyclohex-1-en-1-yl)-3-methylbenzoyl]-N-methyl-N-(3-pyridinylmethyl)-10,11-dihydro-5H-pyrrolo[2,1-c][1,4]benzodiazepine-3-carboxamide]
21 | Cc1cc(C(=O)N2Cc3ccc(C(=O)N4CCN(c5ccncc5)CC4)n3Cc3ccccc32)ccc1C1=CCCCC1 [Example 12, {10-[4-(1-Cyclohex-1-en-1-yl)-3-methylbenzoyl]-10,11-dihydro-5H-pyrrolo[2,1--c][1,4]benzodiazepin-3-yl}[4-(4-pyridinyl)-1-piperazinyl]methanone]

The next lines start with the molecule.

SMILES | V2 % inhibition @ 100 nM [%]
CC1=C(c2ccc(C(=O)N3Cc4ccc(C(=O)N(C)Cc5cccnc5)n4Cc4ccccc43)cc2C)CCC[C@H]1O [Example 3, 10-[4-((3R)-3-Hydroxy-2-methyl-cyclohex-1-en-1-yl)-3-methyl-benzoyl]-10,11-dihydro-5H-pyrrolo[2,1-c][1,4]benzodiazepine-3-carboxylic acid methyl-pyridin-3-yl methyl-amide] | 7
CC1=C(c2ccc(C(=O)N3Cc4ccc(C(=O)N(C)Cc5cccnc5)n4Cc4ccccc43)cc2C)CCC[C@H]1O.O=C(O)C(O)C(O)C(=O)O [Example 4, 10-[4-((3R)-3-Hydroxy-2-methyl-cyclohex-1-en-1-yl)-3-methyl-benzoyl]-10,11-dihydro-5H-pyrrolo[2,1-c][1,4]benzodiazepine-3-carboxylic acid methyl-pyridin-3-yl methyl-amide L-(+)-tartaric acid salt] | 20
Cc1cc(C(=O)N2Cc3ccc(C(=O)NCc4ccccn4)n3Cc3ccccc32)ccc1C1=CCCCC1 [Example 5, 10-[4-(1-Cyclohex-1-en-1-yl)-3-methylbenzoyl]-N-(2-pyridinylmethyl)-10,11-dihydro-5H-pyrrolo[2,1-c][1,4]benzodiazepine-3-carboxamide] | 12
Cc1cc(C(=O)N2Cc3ccc(C(=O)NCc4cccnc4)n3Cc3ccccc32)ccc1C1=CCCCC1 [Example 6, 10-[4-(1-Cyclohex-1-en-1-yl)-3-methylbenzoyl]-N-(3-pyridinylmethyl)-10,11-dihydro-5H-pyrrolo[2,1-c][1 ,4]benzodiazepine-3-carboxamide] | 3
Cc1cc(C(=O)N2Cc3ccc(C(=O)NCCc4ccccn4)n3Cc3ccccc32)ccc1C1=CCCCC1 [Example 7, 10-[4-(1-Cyclohex-1-en-1-yl)-3-methylbenzoyl]-N-[2-(2-pyridinyl)ethyl]-10,11-pyrrolo[2,1-c][1,4]benzodiazepine-3-carboxamide] | 6
Cc1cc(C(=O)N2Cc3ccc(C(=O)N(C)CCc4ccccn4)n3Cc3ccccc32)ccc1C1=CCCCC1 [Example 8, 10-[4-(1-Cyclohex-1-en-1-yl)-3-methylbenzoyl]-N-methyl-N-[2-(2-pyridinyl)ethyl]-10,11-dihydro-5H-pyrrolo[2,1-c][1 ,4]benzodiazepine-3-carboxamide] | 16
Cc1cc(C(=O)N2Cc3ccc(C(=O)NCc4ccncc4)n3Cc3ccccc32)ccc1C1=CCCCC1 [Example 10, 10-[4-(1-Cyclohex-1-en-1-yl)-3-methylbenzoyl]-N-(4-pyridinylmethyl)-10,11-dihydro-5H-pyrrolo[2,1-c][1,4]benzodiazepine-3-carboxamide] | 15
Cc1cc(C(=O)N2Cc3ccc(C(=O)N(C)CCc4ccncc4)n3Cc3ccccc32)ccc1C1=CCCCC1 [Example 13, 10-[4-(1-Cyclohex-1-en-1-yl)-3-methylbenzoyl]-N-methyl-N-[2-(4-pyridinyl)ethyl]-10,11-dihydro-5H-pyrrolo[2,1-c][1,4]benzodiazepine-3-carboxamide] | 12

Same assay, conditions: [3H]arginine vasopressin, value in parentheses

IC50 [µM] | SMILES
1.19 | COc1cc(C2=CCCCC2)c(Cl)cc1C(=O)N1Cc2ccc(C(=O)N(C)Cc3cccnc3)n2Cc2ccccc21 [Example 1, 10-(5-Chloro-4-cyclohex-1-en-1-yl-2-me3thoxybenzoyl)-N-methyl-N-(pyridin-3-ylmethyl)-10,11-dihydro-5H-pyrrolo [2,1-c][1,4]benzodiazepine-3-carboxamide]
1.42 | COc1cc(C2=CCCCC2)c(Cl)cc1C(=O)N1Cc2ccc(C(=O)N(C)Cc3cccnc3)n2Cc2ccccc21 [Example 2, 10-(5-Chloro-4-cyclohex-1-en-1-yl-2-methoxybenzoyl)-N-methyl-N-(pyridin-3-ylmethyl)-10,11-dihydro-5H-pyrrolo[2,1-c][1,4]benzodiazepine-3-carboxamide L-(+)-tartaric acid salt hemihydrate]

Test system: not given
Assay: not given
Settings: not given

melting point [°C] | SMILES
178 to 179 | COc1cc(C2=CCCCC2)c(Cl)cc1C(=O)N1Cc2ccc(C(=O)N(C)Cc3cccnc3)n2Cc2ccccc21 [Example 1, 10-(5-Chloro-4-cyclohex-1-en-1-yl-2-me3thoxybenzoyl)-N-methyl-N-(pyridin-3-ylmethyl)-10,11-dihydro-5H-pyrrolo [2,1-c][1,4]benzodiazepine-3-carboxamide]
